Experimental data published in patent US9944749B2, “Polycarbonates” (Valspar Sourcing, Inc., priority 2012, dated 2018).
Read-outs that look alike come from different tables or passages of the source.

Assays:
MCF-7, clone WS8, cells = assay: MCF-7 cell proliferation assay of estrogenic activity; format: cell-based, human
human estrogen receptor = molecular target: T1, human estrogen receptor (Homo sapiens, UniProt P03372); assay: suitable in vitro assay whose results are directly correlated to the MCF-7 cell proliferation assay; format: cell-based; conditions: in vitro assay correlated to MCF-7 assay through common reference compounds
T1 sequence (P03372 1-595): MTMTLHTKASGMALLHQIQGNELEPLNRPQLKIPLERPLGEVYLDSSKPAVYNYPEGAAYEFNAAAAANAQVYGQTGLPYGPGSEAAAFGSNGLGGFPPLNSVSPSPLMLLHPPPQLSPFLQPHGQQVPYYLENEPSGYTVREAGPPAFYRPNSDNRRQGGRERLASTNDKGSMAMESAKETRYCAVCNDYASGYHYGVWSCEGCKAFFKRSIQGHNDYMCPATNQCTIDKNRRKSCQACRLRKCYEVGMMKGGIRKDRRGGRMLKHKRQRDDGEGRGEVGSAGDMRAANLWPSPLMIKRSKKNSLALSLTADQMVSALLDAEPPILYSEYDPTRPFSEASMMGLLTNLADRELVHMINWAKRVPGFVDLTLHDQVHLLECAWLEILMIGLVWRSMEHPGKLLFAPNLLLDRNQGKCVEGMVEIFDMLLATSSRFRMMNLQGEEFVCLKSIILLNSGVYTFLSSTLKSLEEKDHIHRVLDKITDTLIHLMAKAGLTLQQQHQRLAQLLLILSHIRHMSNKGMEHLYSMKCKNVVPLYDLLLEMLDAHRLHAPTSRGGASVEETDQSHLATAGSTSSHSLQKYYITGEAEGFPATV

SMILES | estrogenic activity (human estrogen receptor) | further results
C[C@]12CC[C@@H]3c4ccc(O)cc4CC[C@H]3[C@@H]1CC[C@@H]2O [17β-estradiol] | – | Log RPE (MCF-7, clone WS8, cells; logarithmic (base 10) Relative Proliferative Effect relative to 17-beta estradiol, cell proliferation measured as total DNA, values 'expected or measured'): 2.00
Oc1ccc(Cc2ccc(O)cc2)cc1 [Bisphenol F] | – | Log RPE (MCF-7, clone WS8, cells): −2
Cc1cc(Cc2cc(C)c(O)c(C)c2)cc(C)c1O [Structure 6, 4,4′-methylenebis(2,6-dimethylphenol)] | do not exhibit appreciable estrogenic activity | –
CCCC(c1cc(C(C)(C)C)c(O)cc1C)c1cc(C(C)(C)C)c(O)cc1C [Structure 7, 4,4′-butylidenebis(2-t-butyl-5-methylphenol)] | do not exhibit appreciable estrogenic activity | –
CC(C)(C)c1cc(Cc2cc(C(C)(C)C)c(O)c(C(C)(C)C)c2)cc(C(C)(C)C)c1O [Structure 8, 4,4′-methylenebis(2,6-di-t-butylphenol)] | do not exhibit appreciable estrogenic activity | –
Cc1cc(Cc2cc(C)cc(C(C)(C)C)c2O)c(O)c(C(C)(C)C)c1 [Structure 9] | do not exhibit appreciable estrogenic activity | –
CC(C)(C)c1cc(O)c(C(C)(C)C)cc1O [Structure 12, 2,5-di-t-butylhydroquinone] | do not exhibit appreciable estrogenic activity | –
